Results from DBAASP.
Converted amounts (≈) assume the structure as drawn. Blank lines part the entries; values can stand above or below the compound they belong to.

Assays:
Assay in all cases: ≥ marks a high value that may be exact or a test limit, other limits are often not marked, values filed in µg/mL are converted to µM
[1] = tested on: Bacillus cereus
[2] = tested on: Escherichia coli
[3] = tested on: Staphylococcus aureus
[4] = tested on: Bacillus subtilis
[5] = tested on: Escherichia coli DH5alpha
[6] = tested on: Pseudomonas aeruginosa ATCC 27853
[7] = tested on: Staphylococcus aureus ATCC 25923
[8] = tested on: Staphylococcus aureus USA 300
[9] = tested on: Enterococcus faecalis ATCC 29212
[10] = tested on: Escherichia coli UB1005
[11] = tested on: Salmonella enterica subsp. enterica serovar Pullorum C79-13
[12] = tested on: Salmonella enterica subsp. enterica serovar Typhimurium ATCC 14028
[13] = tested on: Salmonella enterica subsp. enterica serovar Typhimurium C77-31
[14] = tested on: Staphylococcus epidermidis ATCC 12228
[15] = tested on: Escherichia coli ATCC 25922
[16] = tested on: Staphylococcus aureus ATCC 29213

MIC [1]: ≥ 134 µM
MIC [2]: > 134 µM
SMILES: C[C@H](NC(=O)[C@@H]1CCCN1C(=O)CNC(=O)[C@H](CO)NC(=O)[C@H](CCCN=C(N)N)NC(=O)CNC(=O)[C@@H](NC(=O)[C@@H](N)Cc1cnc[nH]1)[C@@H](C)O)C(=O)N[C@H](C(=O)NCC(=O)N[C@@H](Cc1cnc[nH]1)C(=O)N[C@@H](CO)C(=O)NCC(=O)N[C@@H](Cc1cnc[nH]1)C(=O)N[C@@H](CO)C(=O)N[C@@H](CO)C(=O)N[C@H](C(=O)N[C@@H](Cc1cnc[nH]1)C(=O)NCC(=O)N[C@@H](CO)C(=O)O)[C@@H](C)O)[C@@H](C)O [HTGRSGPATGHSGHSSTHGS]

MIC [1]: ≥ 118 µM
MIC [2]: > 118 µM
MIC [3]: > 118 µM
SMILES: CC(C)C[C@H](NC(=O)[C@H](CCCCN)NC(=O)[C@H](Cc1ccccc1)NC(=O)[C@@H](NC(=O)[C@@H](NC(=O)CNC(=O)[C@H](CC(C)C)NC(=O)[C@@H](N)Cc1ccccc1)C(C)C)C(C)C)C(=O)N[C@@H](C)C(=O)N[C@H](C(=O)N[C@@H](CCCCN)C(=O)N[C@H](C(=O)N[C@@H](Cc1ccccc1)C(=O)N1CCC[C@H]1C(=O)N[C@@H](C)C(=O)N[C@H](C(=O)N[C@@H](Cc1ccccc1)C(=O)NCC(=O)N[C@@H](CCCCN)C(=O)N[C@H](C(=O)O)C(C)C)C(C)C)C(C)C)C(C)C [FLGVVFKLAVKVFPAVFGKV]

MIC [4]: 3.56 µM (≈ 6 µg/mL)
MIC [5]: 3.56 µM (≈ 6 µg/mL)
MIC [6]: 8.9 µM (≈ 15 µg/mL)
MIC [7]: 1.78 µM (≈ 3 µg/mL)
SMILES: CC[C@H](C)[C@H](NC(=O)[C@H](Cc1ccccc1)NC(=O)[C@@H](NC(=O)[C@H](Cc1ccc(O)cc1)NC(=O)[C@H](CCCN=C(N)N)NC(=O)[C@H](CCCCN)NC(=O)[C@H](CCCN=C(N)N)NC(=O)[C@H](CCCCN)NC(=O)[C@H](Cc1c[nH]c2ccccc12)NC(=O)[C@H](CC(C)C)NC(=O)[C@@H](NC(=O)[C@@H](N)Cc1ccc(O)cc1)C(C)C)[C@@H](C)CC)C(=O)O [YVLWKRKRYIFI]

MIC [8]: 12.5 µM (≈ 25.6 µg/mL)
SMILES: CC[C@H](C)[C@H](NC(=O)[C@H](CCCN=C(N)N)NC(=O)[C@H](CCC(N)=O)NC(=O)[C@@H](NC(=O)[C@@H](NC(=O)[C@H](CCC(N)=O)NC(=O)[C@H](CCC(N)=O)NC(=O)[C@H](Cc1ccccc1)NC(=O)CN)[C@@H](C)CC)C(C)C)C(=O)N[C@@H](CCCCN)C(=O)N[C@@H](CC(=O)O)C(=O)N[C@@H](Cc1ccccc1)C(=O)N[C@@H](CC(C)C)C(=O)N[C@@H](CCC(N)=O)C(=O)N[C@@H](CC(N)=O)C(=O)N[C@@H](CC(C)C)C(=O)N[C@H](C(N)=O)C(C)C [GFQQIVQRIKDFLQNLV]

MIC [1]: ≥ 125 µM
MIC [2]: > 125 µM
MIC [3]: > 125 µM
SMILES: CC(C)C[C@H](NC(=O)[C@@H](N)Cc1ccccc1)C(=O)NCC(=O)N[C@H](C(=O)N[C@H](C(=O)N[C@@H](Cc1ccccc1)C(=O)N[C@@H](CCCCN)C(=O)NCC(=O)N[C@@H](C)C(=O)N[C@@H](CO)C(=O)N[C@@H](CCCCN)C(=O)N[C@H](C(=O)N[C@@H](Cc1ccccc1)C(=O)N1CCC[C@H]1C(=O)N[C@@H](C)C(=O)N[C@H](C(=O)N[C@H](C(=O)NCC(=O)N[C@@H](CCCCN)C(=O)N[C@H](C(=O)O)C(C)C)C(C)C)C(C)C)C(C)C)C(C)C)C(C)C [FLGVVFKGASKVFPAVVGKV]

MIC [1]: ≥ 119 µM
MIC [2]: > 119 µM
SMILES: CC[C@H](C)[C@H](NC(=O)[C@H](CCSC)NC(=O)[C@@H](NC(=O)[C@H](CCCCN)NC(=O)[C@H](CO)NC(=O)CNC(=O)[C@@H](NC(=O)[C@@H](NC(=O)[C@H](CCCCN)NC(=O)[C@@H](NC(=O)[C@@H]1CCCN1C(=O)[C@H](CO)NC(=O)[C@H](CCCCN)NC(=O)[C@H](CC(C)C)NC(=O)[C@@H]1CCCN1C(=O)[C@@H](NC(=O)[C@H](CCCN=C(N)N)NC(=O)[C@@H](N)CO)C(C)C)C(C)C)[C@@H](C)CC)C(C)C)C(C)C)C(=O)N[C@@H](Cc1ccccc1)C(=O)N[C@@H](C)C(=O)O [SRVPLKSPVKIVGSKVMIFA]

MIC [1]: ≥ 124 µM
MIC [2]: > 124 µM
SMILES: CC[C@H](C)[C@H](NC(=O)[C@H](CO)NC(=O)[C@H](CCC(N)=O)NC(=O)[C@H](CC(C)C)NC(=O)[C@H](C)NC(=O)[C@H](CC(=O)O)NC(=O)[C@H](CCCCN)NC(=O)[C@H](CCCCN)NC(=O)[C@H](CC(C)C)NC(=O)CN)C(=O)N[C@H](C(=O)N[C@@H](CCCCN)C(=O)N[C@@H](CCCCN)C(=O)N[C@@H](C)C(=O)N[C@@H](CCC(N)=O)C(=O)N[C@@H](CC(C)C)C(=O)N[C@@H](C)C(=O)N[C@@H](C)C(=O)N[C@@H](CCSC)C(=O)NCC(=O)O)C(C)C [GLKKDALQSIVKKAQLAAMG]

MIC [1]: ≥ 128 µM
MIC [2]: > 128 µM
SMILES: CC[C@H](C)[C@H](NC(=O)[C@@H](NC(=O)[C@@H](NC(=O)[C@H](CO)NC(=O)[C@@H]1CCCN1C(=O)[C@H](CCCCN)NC(=O)CNC(=O)CNC(=O)[C@H](CCCCN)NC(=O)[C@@H](NC(=O)[C@H](CO)NC(=O)[C@H](Cc1ccccc1)NC(=O)[C@@H](N)C(C)C)C(C)C)C(C)C)C(C)C)C(=O)N[C@@H](CCCCN)C(=O)N[C@H](C(=O)N[C@H](C(=O)N[C@H](C(=O)N[C@@H](C)C(=O)N[C@@H](CO)C(=O)N[C@H](C(=O)O)[C@@H](C)O)C(C)C)C(C)C)C(C)C [VFSVKGGKPSVVIKVVVAST]

MIC [1]: ≥ 116 µM
MIC [2]: 14.5 µM (≈ 32 µg/mL)
MIC [3]: 116 µM (≈ 256 µg/mL)
SMILES: CC(C)C[C@H](NC(=O)[C@@H](N)Cc1ccccc1)C(=O)NCC(=O)N[C@@H](CCCCN)C(=O)N[C@H](C(=O)N[C@@H](Cc1ccccc1)C(=O)N[C@@H](CCCCN)C(=O)N[C@@H](CCCCN)C(=O)N[C@@H](C)C(=O)N[C@H](C(=O)N[C@@H](CCCCN)C(=O)N[C@H](C(=O)N[C@@H](Cc1ccccc1)C(=O)N1CCC[C@H]1C(=O)N[C@@H](C)C(=O)N[C@H](C(=O)N[C@@H](Cc1ccccc1)C(=O)NCC(=O)N[C@@H](CCCCN)C(=O)N[C@H](C(=O)O)C(C)C)C(C)C)C(C)C)C(C)C)C(C)C [FLGKVFKKAVKVFPAVFGKV]

MIC [9]: 16 µM (≈ 32.5 µg/mL)
MIC [10]: 16 µM (≈ 32.5 µg/mL)
MIC [6]: 32 µM (≈ 65 µg/mL)
MIC [11]: 16 µM (≈ 32.5 µg/mL)
MIC [12]: 32 µM (≈ 65 µg/mL)
MIC [13]: ≥ 32 µM
MIC [14]: 16 µM (≈ 32.5 µg/mL)
SMILES: CC[C@H](C)[C@H](NC(=O)[C@H](CCCCN)NC(=O)[C@H](CCCN=C(N)N)NC(=O)[C@H](CC(C)C)NC(=O)[C@H](Cc1ccccc1)NC(=O)[C@H](CCCN=C(N)N)NC(=O)CNC(=O)[C@H](Cc1ccccc1)NC(=O)[C@@H](N)CCCN=C(N)N)C(=O)N[C@@H](CCCN=C(N)N)C(=O)N[C@@H](CCCN=C(N)N)C(=O)N[C@@H](Cc1ccccc1)C(=O)N[C@@H](CCCN=C(N)N)C(=O)N1CCC[C@H]1C(=O)N[C@@H](CCCCN)C(N)=O [RFGRFLRKIRRFRPK]

MIC [9]: 4 µM (≈ 12.1 µg/mL)
MIC [15]: 4 µM (≈ 12.1 µg/mL)
MIC [11]: 16 µM (≈ 48.3 µg/mL)
MIC [13]: ≥ 128 µM
MIC [16]: 32 µM (≈ 96.6 µg/mL)
MIC [14]: 32 µM (≈ 96.6 µg/mL)
SMILES: CC(C)C[C@H](NC(=O)[C@@H](NC(=O)[C@@H](NC(=O)[C@@H](N)CC(C)C)C(C)C)[C@@H](C)O)C(=O)N[C@H](C(=O)N[C@@H](Cc1ccccc1)C(=O)N[C@H](C(=O)NCC(=O)NCC(=O)NCC(=O)N[C@@H](Cc1c[nH]c2ccccc12)C(=O)N[C@@H](CCCCN)C(=O)N[C@@H](Cc1c[nH]c2ccccc12)C(=O)N[C@@H](CCCCN)C(=O)N[C@@H](Cc1c[nH]c2ccccc12)C(=O)N[C@@H](CCCCN)C(=O)N[C@@H](CC(N)=O)C(=O)NCC(=O)N[C@@H](CCCCN)C(=O)N[C@@H](Cc1c[nH]c2ccccc12)C(=O)N[C@@H](CCCCN)C(=O)N[C@@H](Cc1c[nH]c2ccccc12)C(=O)N[C@@H](CCCCN)C(=O)N[C@@H](Cc1c[nH]c2ccccc12)C(=O)O)C(C)C)C(C)C [LVTLVFVGGGWKWKWKNGKWKWKW]

MIC [1]: ≥ 122 µM
MIC [2]: > 122 µM
SMILES: CC(C)C[C@H](NC(=O)CNC(=O)[C@H](CCCCN)NC(=O)[C@@H](NC(=O)[C@H](CC(C)C)NC(=O)[C@@H](NC(=O)[C@H](Cc1ccccc1)NC(=O)[C@H](Cc1ccccc1)NC(=O)[C@H](CCCCN)NC(=O)[C@H](CCCCN)NC(=O)[C@H](C)NC(=O)[C@@H](NC(=O)[C@@H](N)C(C)C)C(C)C)C(C)C)C(C)C)C(=O)N[C@@H](C)C(=O)N1CCC[C@H]1C(=O)N[C@H](C(=O)N[C@@H](CC(C)C)C(=O)N[C@@H](CO)C(=O)N1CCC[C@H]1C(=O)N[C@@H](CO)C(=O)O)C(C)C [VVAKKFFVLVKGLAPVLSPS]
